Data published in a melting point compilation (Tetko et al.; mined from patent text by program, amines drawn as free bases though some values may be those of a salt).

Question: For `COC(=O)c1ccc(NC(=O)c2cc(C(C)C)c(C(C)C)o2)cc1`, which melting point is on record?
Answer: Its melting point is 198 to 200 °C.

Question: Which melting point does the source give for `COc1ccc(OCCCCCCc2c(C)n[nH]c2C)c(Cl)c1` here?
Answer: The melting point was 150 to 151 °C.

Question: For `CCOC(=O)c1sc(SC)c2c1CCC(C(OCC)OCC)C2=O` (configuration not stated), which melting point is on record?
Answer: Its melting point is 113 to 114 °C.

Question: With `Cn1c(CCNC(=O)C(F)(F)F)cc2ccccc21` as the compound, how does the melting point read?
Answer: The melting point was 124 to 126 °C.

Question: With `COc1ccc(C(C#Cc2ccccc2)CNC(=O)C(F)(F)F)cc1OC1CCCC1` (racemic) as the compound, how does the melting point read?
Answer: The melting point was 143 to 145 °C.

Question: With `c1ccc(CSc2ncnc3c(N4CCOCC4)nc(N4CCNCC4)nc23)cc1` as the compound, how does the melting point read?
Answer: Its melting point is 191 to 193 °C.

Question: For `COC(=O)C(NS(=O)(=O)c1ccc(-c2ccc(NC(=O)c3cc4c(OC(C)C)cccc4o3)cc2)cc1)C(C)C` (configuration not stated), which melting point is on record?
Answer: Its melting point is 226 to 229 °C.

Question: For `COc1ccc(/C=C/c2nc3cc(C(=O)O)ccc3[nH]2)cc1OC`, which melting point is on record?
Answer: The melting point was > 285 °C.

Question: With `CCOC(=O)CCC1NC(=O)CN1Cc1ccccc1` (configuration not stated) as the compound, how does the melting point read?
Answer: The melting point was 60 to 62 °C.

Question: For `Cc1cnc(Br)c(C#N)c1`, which melting point is on record?
Answer: The melting point was 109 to 111 °C.

Question: With `COc1ccc(-n2[nH]c(Cc3c(C)n(C(=O)c4ccc(Cl)cc4)c4ccc(OC)cc34)cc2=O)cc1` as the compound, how does the melting point read?
Answer: The melting point was 101 to 103 °C.

Question: Which melting point does the source give for `O=C(NCc1ccc2c(c1)OCO2)c1ccc2n1Cc1ccccc1N(C(=O)CSc1ccc(Br)cc1)C2` here?
Answer: Its melting point is 154 to 155 °C.

Question: Which melting point does the source give for `O=S(=O)(c1ccc(Br)cc1)N1C=CC=NC=C1` here?
Answer: Its melting point is 95 to 97 °C.

Question: With `O=C(NCC(F)(F)F)C1(CCCCN2CCN(c3ccc4cccc(Cl)c4n3)CC2)c2ccccc2Oc2ccccc21` as the compound, how does the melting point read?
Answer: The melting point was 68 °C.

Question: With `CCOC(=O)Cc1c(Br)cnc2c([N+](=O)[O-])cccc12` as the compound, how does the melting point read?
Answer: Its melting point is 163 to 164 °C.

Question: Which melting point does the source give for `COC(=O)c1ccccc1-c1nc(COc2ccc(C=O)cc2OC)c(C)o1` here?
Answer: The melting point was 129 to 130 °C.

Question: Which melting point does the source give for `CCOP(=O)(OCC)c1ccccc1` here?
Answer: Its melting point is 256 °C.

Question: With `[N-]=[N+]=C(C(=O)CCc1ccc(S(=O)(=O)Cl)cc1)C(=O)CCc1ccc(S(=O)(=O)Cl)cc1` as the compound, how does the melting point read?
Answer: Its melting point is 121 to 122 °C.

Question: Which melting point does the source give for `CC(=O)OC1C(CO)OC(c2ccc(Cl)c(Cc3ccc(-c4ccccc4)s3)c2)C(OC(C)=O)C1OC(C)=O` (configuration not stated) here?
Answer: Its melting point is 166 to 168 °C.

Question: With `CN(C)c1ccccc1Sc1nc2ccccc2[nH]1` as the compound, how does the melting point read?
Answer: Its melting point is 148 to 149 °C.

Question: With `CC1=CC2C(CC1)C(c1ccc(F)cc1)=NC(=O)N2C(C)C` (configuration not stated) as the compound, how does the melting point read?
Answer: Its melting point is 154 to 158 °C.

Question: For `Cc1cccc(-c2ccc(OS(=O)(=O)C(F)(F)F)cc2C=O)c1`, which melting point is on record?
Answer: Its melting point is 60 to 62 °C.

Question: Which melting point does the source give for `Cc1cc(C)nc(NC(=S)NS(=O)(=O)c2ccccc2-c2ccccc2)n1` here?
Answer: Its melting point is 203 to 204 °C.

Question: Which melting point does the source give for `CCc1nn2ccccc2c1C(C)=O` here?
Answer: Its melting point is 108 to 112 °C.

Question: With `COc1cccc(NCc2sccc2S(=O)(=O)Nc2onc(C)c2Br)c1` as the compound, how does the melting point read?
Answer: The melting point was 70 to 73 °C.

Question: For `COc1ccccc1CP(C)(=O)C1CCCCC1` (configuration not stated), which melting point is on record?
Answer: Its melting point is 108 to 110 °C.

Question: Which melting point does the source give for `Cc1cc2c(-c3ccccc3)c(C(=O)NCc3cc(C(F)(F)F)cc(C(F)(F)F)c3)n(CC(N)=O)c(=O)c2cc1C` here?
Answer: Its melting point is 235 to 237 °C.

Question: With `CCOC(=O)c1cc(N=Cc2ccccc2)ccc1O` as the compound, how does the melting point read?
Answer: Its melting point is 63 to 65 °C.

Question: With `CS(=O)(=O)N1CCN(c2ccc(O)cc2)CC1` as the compound, how does the melting point read?
Answer: The melting point was 205 °C.

Question: For `C[Si](C)(C)CCC1=C(O)C(=O)c2ccccc2C1=O`, which melting point is on record?
Answer: The melting point was 98 to 100 °C.

Question: For `CC(C)(C)c1cc(SCCCC(=O)O)cc(C(C)(C)C)c1O`, which melting point is on record?
Answer: Its melting point is 112 to 114 °C.

Question: With `COc1ccc2c(c1)c(CCO)c(C)n2Cc1ccc(Cl)cc1` as the compound, how does the melting point read?
Answer: Its melting point is 113 to 115 °C.

Question: With `COc1cc2c(cc1OC)CN(CCCc1cccc(NC(=O)c3cccc4c(=O)c5cccc(F)c5[nH]c34)c1)CC2` as the compound, how does the melting point read?
Answer: Its melting point is 128 °C.

Question: Which melting point does the source give for `CCOC(=O)c1cnc2nc(SCc3ccccc3)nn2c1C` here?
Answer: Its melting point is 98 to 99 °C.

Question: For `CCCC(=O)C1=C(O)CC(c2cc(C3CCCO3)no2)CC1=O` (configuration not stated), which melting point is on record?
Answer: Its melting point is 102 to 104 °C.

Question: For `CN(C)c1ccc2c(c1)NCC2`, which melting point is on record?
Answer: Its melting point is 165 to 167 °C.

Question: Which melting point does the source give for `CCOC(=O)c1cccc(-c2ccc(-c3ccc(C(F)(F)F)cc3)o2)c1` here?
Answer: Its melting point is 93 to 94 °C.

Question: For `CCOC(=O)c1cc(C(C)=O)c(=O)[nH]c1C(=O)OCC`, which melting point is on record?
Answer: The melting point was 101 to 110 °C.

Question: With `CCOC(=O)C(=NNc1ccc([N+](=O)[O-])cc1)C(C)=O` as the compound, how does the melting point read?
Answer: The melting point was 128 °C.

Question: With `CC(C)=CC(=O)N1CC(c2ccccc2)c2ccccc21` (configuration not stated) as the compound, how does the melting point read?
Answer: The melting point was 97 to 98 °C.

Question: For `CCCc1cc(C(O)=S)cc(N)c1Oc1ccccc1`, which melting point is on record?
Answer: The melting point was 136 to 138 °C.

Question: Which melting point does the source give for `COc1ccc(P(=O)(c2ccccc2)c2ccccc2)cc1OC` here?
Answer: The melting point was 154 to 156 °C.

Question: For `CNc1nc(Cl)c(OC(F)F)c(N(C)C)n1`, which melting point is on record?
Answer: Its melting point is 127 to 130 °C.

Question: With `O=C(CCn1ccnc1)N1c2ccccc2S(=O)c2ccc(Cl)cc21` (configuration not stated) as the compound, how does the melting point read?
Answer: Its melting point is 148 to 149 °C.

Question: Which melting point does the source give for `COC(=O)c1ccc(OCc2ccccc2)c(OC2CCCC2)c1` here?
Answer: Its melting point is 58 to 59 °C.

Question: For `O=S(=O)(N[C@H](CO)C(CC(F)(F)F)CC(F)(F)F)c1ccc(Cl)cc1`, which melting point is on record?
Answer: Its melting point is 186 to 187 °C.

Question: For `CCOC(=O)[C@H](CC(C)C)NC(=O)C[C@@H]1CN(CC(C)(C)CO)c2ccc(Cl)cc2[C@@H](c2cccc(OC)c2OC)O1`, which melting point is on record?
Answer: Its melting point is 148 to 149 °C.

Question: With `Cn1nc(N)c2c(=O)n3c(nc21)SCC3` as the compound, how does the melting point read?
Answer: Its melting point is 280 to 283 °C.

Question: For `COc1ccc(CC(C)=O)cc1S(N)(=O)=O`, which melting point is on record?
Answer: Its melting point is 194 to 196 °C.

Question: Which melting point does the source give for `COc1cc(Nc2nc3cccc(-c4ccccc4)c3o2)cc(OC)c1OC` here?
Answer: The melting point was 182 to 185 °C.

Question: Which melting point does the source give for `O=C(O)c1ccc(OCCCOc2ccccc2)cc1C(=O)O` here?
Answer: Its melting point is 155 to 159 °C.

Question: With `O=c1ccc(-c2cccc(-n3ccnc3)c2)n[nH]1` as the compound, how does the melting point read?
Answer: Its melting point is 234 to 236 °C.

Question: Which melting point does the source give for `C[C@@H](CO)[C@](O)(Cn1cncn1)c1ccc(F)cc1F` here?
Answer: The melting point was 93 to 95 °C.

Question: With `COC(=O)c1ccc2oc(-c3ccc(OC)cc3)cc2c1` as the compound, how does the melting point read?
Answer: Its melting point is 157 to 159 °C.

Question: Which melting point does the source give for `COc1cc(C(C)(C)CC(C)(C)C)c(OC)cc1C(=O)CCC(=O)O` here?
Answer: The melting point was 142 °C.

Question: With `O=S(=O)(c1cccc2ccccc12)c1n[nH]c2ccc(OC3CCCNC3)cc12` (configuration not stated) as the compound, how does the melting point read?
Answer: The melting point was 178 to 180 °C.

Question: With `CC(=O)c1nc2cccc(OC(F)(F)F)c2cc1OCc1ccccc1` as the compound, how does the melting point read?
Answer: The melting point was 90 to 92 °C.

Question: Which melting point does the source give for `Fc1ccc2c(c1F)C(C#CC1CC1)(C(F)(F)F)NC(=S)N2` (racemic) here?
Answer: The melting point was 241 to 243 °C.

Question: For `Cc1cc2c(-c3cccc(C=O)c3)c(CC(=O)Nc3ccc(Cl)cc3C(F)(F)F)c(=O)oc2cc1Cl`, which melting point is on record?
Answer: The melting point was 232 to 233 °C.

Question: For `C=CCOc1ccc(C[C@H](N)C(=O)NC(=O)OC(C)(C)C)cc1`, which melting point is on record?
Answer: The melting point was 145 °C.

Question: With `O=c1[nH]c2cc(Cl)ccc2n1C1CCNCC1` as the compound, how does the melting point read?
Answer: The melting point was 200 to 206 °C.

Question: Which melting point does the source give for `O=C(Nc1cccc(F)c1)c1ccc(CN2C(=O)C3(COc4cc5c(cc43)CCO5)c3ccccc32)cc1` (configuration not stated) here?
Answer: The melting point was > 250 °C.

Question: Which melting point does the source give for `CCc1ncc(CCCOc2c(C)cc(-c3noc(C(F)(F)F)n3)cc2C)s1` here?
Answer: Its melting point is 57 to 59 °C.

Question: For `O=C(CCCS(=O)c1ccc(Cl)cc1)NO` (configuration not stated), which melting point is on record?
Answer: The melting point was 126 to 127 °C.

Question: For `O=C1N[C@H]2[C@H](O)[C@H](O)[C@@H](O)[C@H](CO)[C@@H]2c2cc3c(cc21)OCO3`, which melting point is on record?
Answer: Its melting point is > 200 °C.

Question: For `CCCCCCCCCCCCNC1=NC(C)(C)N=C(NCc2ccc(S(N)(=O)=O)cc2)N1`, which melting point is on record?
Answer: The melting point was 188 to 191 °C.

Question: Which melting point does the source give for `Cc1cc(C(=O)N(C)C)ncc1C(c1c(F)ccc(F)c1F)S(=O)(=O)CCC(F)(F)F` (configuration not stated) here?
Answer: The melting point was 203 to 204 °C.

Question: Which melting point does the source give for `O=c1c2ccccc2n(CCCOC2CCCCO2)c2ccccc12` (configuration not stated) here?
Answer: The melting point was 140 to 142 °C.

Question: For `Cc1cc(=O)n(C)c2[nH]n(-c3ccccc3)c(=O)c12`, which melting point is on record?
Answer: The melting point was 179 to 181 °C.

Question: For `N#Cc1ccc2cc(-c3ccc(O)cc3)oc2c1`, which melting point is on record?
Answer: Its melting point is 272 to 274 °C.

Question: For `Cc1cc(O)c(SCc2ccccc2)c(=O)o1`, which melting point is on record?
Answer: Its melting point is 128 °C.

Question: For `CC(C)(C(=O)O)n1c(=O)[nH]c2cc3ccccc3cc2c1=O`, which melting point is on record?
Answer: The melting point was 273 to 276 °C.
